Results: DBAASP
≈ marks a conversion by molar mass, not a printed value. Where “and” joins values, the source holds several entries; their conditions need not be identical. Equal values may be shown once. Values belong to the molecule of their own block, whether it stands above or below them.

Experiments:
Experiment in all cases: ≥ marks a high value that may be exact or a test limit, other limits are often not marked, values filed in µg/mL are converted to µM
Staphylococcus aureus = tested on: Staphylococcus aureus
[1] = tested on: Serratia marcescens ATCC 14041
[2] = tested on: Pseudomonas aeruginosa ATCC 15442
[3] = tested on: Stenotrophomonas maltophilia
Staphylococcus hominis = tested on: Staphylococcus hominis
[4] = tested on: Klebsiella pneumoniae ATCC 700603
Enterococcus faecium = tested on: Enterococcus faecium
[5] = tested on: Acinetobacter baumannii ATCC 19606
[6] = tested on: Staphylococcus epidermidis
[7] = tested on: Enterococcus faecium ATCC 29212
Streptococcus agalactiae = tested on: Streptococcus agalactiae
[8] = tested on: Klebsiella aerogenes ATCC 49701
[9] = tested on: Staphylococcus epidermidis ATCC 12228
Serratia marcescens = tested on: Serratia marcescens
Proteus mirabilis = tested on: Proteus mirabilis
[10] = tested on: Klebsiella oxytoca ATCC 43086
Klebsiella aerogenes = tested on: Klebsiella aerogenes
[11] = tested on: Staphylococcus hominis ATCC 29970
Klebsiella pneumoniae = tested on: Klebsiella pneumoniae
[12] = tested on: Proteus mirabilis ATCC 12453
Enterobacter cloacae = tested on: Enterobacter cloacae
[13] = tested on: Enterobacter cloacae ATCC 13047
Pseudomonas aeruginosa = tested on: Pseudomonas aeruginosa
Klebsiella oxytoca = tested on: Klebsiella oxytoca
[14] = tested on: Staphylococcus aureus ATCC 29213
Escherichia coli = tested on: Escherichia coli
Acinetobacter baumannii = tested on: Acinetobacter baumannii
[15] = tested on: Stenotrophomonas maltophilia ATCC 13637
[16] = tested on: Bacillus subtilis ATCC 21332
[17] = tested on: Escherichia coli ATCC 25922
[18] = tested on: Raoultella ornithinolytica ATCC 31898
[19] = tested on: Raoultella ornithinolytica
[20] = tested on: Saccharomyces cerevisiae IP118079
[21] = tested on: Cryptococcus neoformans IP960-67
[22] = tested on: Trichophyton simii IP1063-74
[23] = tested on: Nocardia brasiliensis IP16-80
[24] = tested on: Enterococcus faecalis IP103214
[25] = tested on: Aspergillus niger IP218-53
[26] = tested on: Candida albicans IP884-65
[27] = tested on: Aeromonas caviae IP67-16T
[28] = tested on: Staphylococcus aureus IP76-25
[29] = tested on: Aspergillus fumigatus IP1025-70
Escherichia coli IP76-24 = tested on: Escherichia coli IP76-24
[30] = tested on: Bacillus subtilis PCI 219
[31] = tested on: Pseudomonas aeruginosa U-31
[32] = tested on: Staphylococcus aureus FDA 209P
[33] = tested on: Escherichia coli NIHJ JC-2

- MIC (Staphylococcus aureus): > 52.9 µM
- MIC [1]: ≥ 52.9 µM
- MIC [2]: ≥ 52.9 µM
- MIC [3]: ≥ 52.9 µM
- MIC (Staphylococcus hominis): ≥ 52.9 µM
- MIC [4]: 3.3 µM (≈ 7.99 µg/mL)
- MIC (Enterococcus faecium): ≥ 37.4 µM
- MIC [5]: > 52.9 µM
- MIC [6]: ≥ 52.9 µM
- MIC [7]: 26.4 µM (≈ 63.9 µg/mL)
- MIC (Streptococcus agalactiae): ≥ 52.9 µM
- MIC [8]: 1.65 µM (≈ 4 µg/mL)
- MIC [9]: > 52.9 µM
- MIC (Serratia marcescens): ≥ 52.9 µM
- MIC (Proteus mirabilis): ≥ 52.9 µM
- MIC [10]: 3.3 µM (≈ 7.99 µg/mL)
- MIC (Klebsiella aerogenes): 1.65 µM (≈ 4 µg/mL)
- MIC [11]: ≥ 52.9 µM
- MIC (Klebsiella pneumoniae): 2.34 µM (≈ 5.65 µg/mL)
- MIC [12]: ≥ 52.9 µM
- MIC (Enterobacter cloacae): 4.67 µM (≈ 11.3 µg/mL)
- MIC [13]: 3.3 µM (≈ 7.99 µg/mL)
- MIC (Pseudomonas aeruginosa): > 52.9 µM
- MIC (Klebsiella oxytoca): 3.3 µM (≈ 7.99 µg/mL)
- MIC [14]: > 52.9 µM
- MIC (Escherichia coli): 2.34 µM (≈ 5.65 µg/mL)
- MIC (Acinetobacter baumannii): ≥ 52.9 µM
- MIC [15]: ≥ 52.9 µM
- MIC [16]: 3.3 µM (≈ 7.99 µg/mL)
- MIC [17]: 2.34 µM and 1.6 µM
- MIC [18]: 3.3 µM (≈ 7.99 µg/mL)
- MIC [19]: 3.3 µM (≈ 7.99 µg/mL)
Structure (SMILES): CC[C@H](C)[C@H](NC(=O)[C@@H](NC(=O)[C@@H]1CCCN1C(=O)[C@@H](NC(=O)[C@@H]1CCCN1C(=O)[C@H](CCCCN)NC(=O)[C@H](CCCCN)NC(=O)[C@H](CO)NC(=O)CN)C(C)C)[C@@H](C)CC)C(=O)N[C@@H](Cc1ccc(O)cc1)C(=O)N[C@H]1CSSC[C@@H](C(=O)N[C@@H](CCC(N)=O)C(=O)N[C@@H](CCCN=C(N)N)C(=O)N[C@@H](CCSC)C(=O)O)NC(=O)[C@H](CCCCN)NC(=O)CNC(=O)[C@H](CO)NC(=O)[C@H](CCCN=C(N)N)NC(=O)[C@H](CCCN=C(N)N)NC(=O)[C@H](CC(N)=O)NC1=O [GSKKPVPIIYCNRRSGKCQRM]

- MIC [20]: 20 µM (≈ 27.2 µg/mL)
- MIC [21]: 6 µM (≈ 8.15 µg/mL)
- MIC [22]: ≥ 70 µM
- MIC [23]: ≥ 150 µM
- MIC [24]: 6 µM (≈ 8.15 µg/mL)
- MIC [25]: ≥ 90 µM
- MIC [26]: ≥ 40 µM
- MIC [27]: 6 µM (≈ 8.15 µg/mL)
- MIC [28]: ≥ 150 µM
- MIC [29]: ≥ 90 µM
- MIC (Escherichia coli IP76-24): 6 µM (≈ 8.15 µg/mL)
Structure (SMILES): CC[C@H](C)[C@H](NC(=O)CNC(=O)[C@H](CCCCN)NC(=O)[C@H](CC(C)C)NC(=O)[C@H](CCSC)NC(=O)[C@H](CC(N)=O)NC(=O)[C@H](CCCCN)NC(=O)[C@H](Cc1c[nH]c2ccccc12)NC(=O)[C@H](CC(C)C)NC(=O)[C@H](C)N)C(=O)NCC(=O)N[C@@H](CCCCN)C(N)=O [ALWKNMLKGIGK]

- MIC [30]: ≥ 43 µM
- MIC [31]: ≥ 43 µM
- MIC [32]: ≥ 43 µM
- MIC [33]: ≥ 43 µM
Structure (SMILES): CC(C)C[C@H](NC(=O)[C@H](CCCCN)NC(=O)[C@H](CCCCN)NC(=O)[C@H](CCCCN)NC(=O)[C@H](CC(C)C)NC(=O)[C@H](CCCCN)NC(=O)[C@H](CCCCN)NC(=O)[C@H](Cc1c[nH]c2ccccc12)NC(=O)[C@H](CCCCN)NC(=O)[C@H](CCCCN)NC(=O)[C@H](CCCCN)NC(=O)[C@H](CC(C)C)NC(=O)[C@H](CCCCN)NC(=O)[C@H](CCCCN)NC(=O)[C@H](CC(C)C)NC(=O)[C@H](CCCCN)NC(=O)[C@@H](N)CCCCN)C(=O)N[C@@H](CCCCN)C(=O)O [KKLKKLKKKWKKLKKKLK]
